Values quoted from earlier work as cited in PubChem BioAssay AID1259409 (Chemical Carcinogenesis Research Information System (CCRIS), 2018).

Test system: rodent chemically induced tumor inhibition, incidence and multiplicity
Experiment: CCRIS tumor inhibitor studies
Settings: Dose [Inhibitor]: 0

In the case of `CC[C@H](C)C(=O)O[C@H]1C[C@H](O)C=C2C=C[C@H](C)[C@H](CC[C@@H](O)C[C@@H](O)CC(=O)O)[C@H]21`, the “tumour outcome (control, treated, inhibition, significance)” value (Carcinogen: 1,2-DIMETHYLHYDRAZINE, 540-73-8, 0.001% IN DRINKING WATER FOR 30 WK (STUDY DURATION: 30 WK), Route [Inhibitor]: ORAL, Species: MOUSE, Strain/Sex: ICR/FEMALE, Target Tissue: Type of Lesion: COLON: TUMOR, Dose [Carcinogen]: 10 MG/KG BW 1/WK FOR 15 WK, Promoter: NONE USED) is given as 21/34 (62%), 14/30 (47%), 24%, not significant, the “tumour outcome (control, treated, inhibition, significance)” value (Carcinogen: 1,2-DIMETHYLHYDRAZINE, 540-73-8, 0.005% IN DRINKING WATER FOR 30 WK (STUDY DURATION: 30 WK), Route [Inhibitor]: ORAL, Species: MOUSE, Strain/Sex: ICR/FEMALE, Target Tissue: Type of Lesion: COLON: TUMOR, Dose [Carcinogen]: 10 MG/KG BW 1/WK FOR 15 WK, Promoter: NONE USED) is given as 21/34 (62%), 13/30 (43%), 31%, not significant and the “tumour outcome (control, treated, inhibition, significance)” value (Carcinogen: 1,2-DIMETHYLHYDRAZINE, 540-73-8, 0.01% IN DRINKING WATER FOR 25 WK (STUDY DURATION: 25 WK), Route [Inhibitor]: ORAL, Species: MOUSE, Strain/Sex: ICR/FEMALE, Target Tissue: Type of Lesion: COLON: TUMOR, Dose [Carcinogen]: 10 MG/KG BW 1/WK FOR 15 WK, Promoter: NONE USED) is given as 6/15 (40%), 2/15 (13%), 68%, not significant. For the same compound, the “tumour outcome (control, treated, inhibition, significance)” value (Carcinogen: N-METHYL-N-NITROSOUREA, 684-93-5, 1 PPM IN DRINKING WATER FOR 36 WK BEGINNING POST CARCINOGEN TREATMENT (STUDY DURATION: 40 WK), Route [Inhibitor]: ORAL, Species: RAT, Strain/Sex: F344/FEMALE, Target Tissue: Type of Lesion: COLON: ADENOCARCINOMA, Dose [Carcinogen]: 2 MG 3/WK FOR 3 WK, Promoter: NONE USED) was 24/30 (80%), 23/30 (77%), 4%, not significant, the “tumour outcome (control, treated, inhibition, significance)” value (Carcinogen: N-METHYL-N-NITROSOUREA, 684-93-5, 5 PPM IN DRINKING WATER FOR 36 WK BEGINNING POST CARCINOGEN TREATMENT (STUDY DURATION: 40 WK), Route [Inhibitor]: ORAL, Species: RAT, Strain/Sex: F344/FEMALE, Target Tissue: Type of Lesion: COLON: ADENOCARCINOMA, Dose [Carcinogen]: 2 MG 3/WK FOR 3 WK, Promoter: NONE USED) was 24/30 (80%), 14/29 (48%), 40%, p<0.05 and the “tumour outcome (control, treated, inhibition, significance)” value (Carcinogen: N-METHYL-N-NITROSOUREA, 684-93-5, 25 PPM IN DRINKING WATER FOR 36 WK BEGINNING POST CARCINOGEN TREATMENT (STUDY DURATION: 40 WK), Route [Inhibitor]: ORAL, Species: RAT, Strain/Sex: F344/FEMALE, Target Tissue: Type of Lesion: COLON: ADENOCARCINOMA, Dose [Carcinogen]: 2 MG 3/WK FOR 3 WK, Promoter: NONE USED) was 24/30 (80%), 15/30 (50%), 38%, p<0.05. The “tumour outcome (control, treated, inhibition, significance)” value (Carcinogen: N-METHYL-N-NITROSOUREA, 684-93-5, 200 PPM IN DRINKING WATER FOR 40 WK BEGINNING CONCURRENTLY WITH CARCINOGEN TREATMENT (STUDY DURATION: 40 WK), Route [Inhibitor]: ORAL, Species: RAT, Strain/Sex: F344/FEMALE, Target Tissue: Type of Lesion: COLON: ADENOCARCINOMA, Dose [Carcinogen]: 2 MG 3/WK FOR 2 WK, Promoter: NONE USED) was 11/16 (69%), 10/16 (63%), 9%, not significant.
For `C[C@]12CC[C@]3(C1)[C@H](CC2=O)C[C@@H](OC(=O)c1ccccc1)[C@H]1[C@](C)(C(=O)O)CCC[C@@]13C`, the “tumour outcome (control, treated, inhibition, significance)” value (Carcinogen: 7,12-DIMETHYLBENZ[A]ANTHRACENE, 57-97-6, 162 NMOL 2/WK APPLIED SIMULTANEOUSLY WITH EACH PROMOTER DOSE FOR 18 WK (STUDY DURATION: 18 WK), Route [Inhibitor]: DERMAL, Species: MOUSE, Strain/Sex: ICR/FEMALE, Target Tissue: Type of Lesion: SKIN: TUMOR, Dose [Carcinogen]: 100 UG IN 100 µL ACETONE ONCE, Promoter: 12-O-TETRADECANOYLPHORBOL-13-ACETATE, 16561-29-8) is listed as 90%, 50%, 44%, not significant.
In the case of `NC(N)=NC(=O)c1nc(Cl)c(N)nc1N`, the “tumour outcome (control, treated, inhibition, significance)” value (Carcinogen: AZOXYMETHANE, 25843-45-2, 5 MG/KG BW 1/2 D FOR 35 WK (STUDY DURATION: 35 WK), Route [Inhibitor]: SUBCUTANEOUS, Species: RAT, Strain/Sex: WISTAR/MALE, Target Tissue: Type of Lesion: COLON: TUMOR, Dose [Carcinogen]: 7.4 MG/KG BW 1/WK FOR 10 WK, Promoter: NONE USED) is listed as 15/19 (79%), 13/17 (76%), 4%, not significant, the “tumour outcome (control, treated, inhibition, significance)” value (Carcinogen: AZOXYMETHANE, 25843-45-2, 7.5 MG/KG BW 1/2 D FOR 35 WK (STUDY DURATION: 35 WK), Route [Inhibitor]: SUBCUTANEOUS, Species: RAT, Strain/Sex: WISTAR/MALE, Target Tissue: Type of Lesion: COLON: TUMOR, Dose [Carcinogen]: 7.4 MG/KG BW 1/WK FOR 10 WK, Promoter: NONE USED) is listed as 15/19 (79%), 7/18 (39%), 51%, p<0.001 and the “tumour outcome (control, treated, inhibition, significance)” value (Carcinogen: N-METHYL-N'-NITRO-N-NITROSOGUANIDINE, 70-25-7, 2.5 MG/KG BW 1/2 D BEGINNING 25 WK POST FIRST CARCINOGEN DOSE AND CONTINUING FOR DURATION OF STUDY (STUDY DURATION: 5, Route [Inhibitor]: SUBCUTANEOUS, Species: RAT, Strain/Sex: WISTAR/MALE, Target Tissue: Type of Lesion: STOMACH: ADENOCARCINOMA, Dose [Carcinogen]: 50 UG/ML IN DRINKING WATER FOR 25 WK, Promoter: NONE USED) is listed as 10/20 (50%), 5/17 (29%), 42%, not significant. The “tumour outcome (control, treated, inhibition, significance)” value (Carcinogen: N-METHYL-N'-NITRO-N-NITROSOGUANIDINE, 70-25-7, 5 MG/KG BW 1/2 D BEGINNING 25 WK POST FIRST CARCINOGEN DOSE AND CONTINUING FOR DURATION OF STUDY (STUDY DURATION: 52, Route [Inhibitor]: SUBCUTANEOUS, Species: RAT, Strain/Sex: WISTAR/MALE, Target Tissue: Type of Lesion: STOMACH: ADENOCARCINOMA, Dose [Carcinogen]: 50 UG/ML IN DRINKING WATER FOR 25 WK, Promoter: NONE USED) was 10/20 (50%), 3/20 (15%), 70%, p<0.05.
